Laboratory results reported in patent US10550383B2, “Galvanotaxis assay for quantitative assessment of the metastatic potential of cancer cells” (Ohio State Innovation Foundation, priority 2013, dated 2020).

Experiments:
Assay type in all cases: cell-based, human
SCP2 cells [1] = test: visualization of actin filaments by phalloidin staining and fluorescence microscopy; conditions: EGF 100 ng/mL, one hour, no induced electric field (FIG. 6a middle panel)
Protocol: The present invention allows the visualization of actin filaments that form the cytoskeleton of the SCP2 cells and play a crucial role in cell migration, when induced electric fields are applied in a non-contact manner as described earlier (FIG. 6). The images are quantified to determine the actin filament distribution within the cell as represented by the fluorescence intensity. In one embodiment, SCP2 cells are plated on a single-well, 60 mm diameter culture plate, allowed to migrate freely for an hour, and then fixed and stained with phalloidin-fluorophore conjugate for visualization of the actin filaments (FIG. 6a, left panel). […] These images have also been quantified after importing into MATLAB (FIGS. 18-20). […]
Analysis of actin filament distribution: images obtained from phalloidin and fluorescence microscopy are imported into MATLAB (2014a, Mathworks, Inc., Massachusetts, U.S.A.). […] Intensities are then separated into red, green, and blue so that the background and nuclei intensities may be filtered out and only the green fluorescence from the actin filaments is extracted. Actin fluorescence intensities are analyzed versus cell length (longer dimension being the length), and averaged.

MCF-10A cells = test: modified transmembrane assay, migration of MCF-10A cells; conditions: 50 ng/mL EGF in lower chamber, 16 hours, no induced electric field (-E+EGF, FIG. 22)
Protocol: Weak a.c. electric fields hinder chemotaxis of “normal” breast epithelial cells. Experiments on combined chemotaxis and electrotaxis were performed with MCF10A cells in the same modified transmembrane assay in order to examine the effects of the induced a.c. electric field in hindering chemotaxis of non-transformed cells. MCF-10A cells are a non-transformed epithelial cell line derived from human fibrocystic mammary tissue. These cells are considered “normal” breast epithelial cells as they have a karyotype that is nearly diploid, are dependent on externally supplied growth factors for migration, and lack the ability to form tumors in nude mice. The growth factor EGF was used as an exogenous agent to induce MCF-10A cells to migrate in the modified transmembrane assay, as in the case of the SCP2 cells. No migration of MCF-10A cells was observed without EGF in the bottom chamber. […]
In one embodiment, MCF10A cells were cultured in Dulbecco's Modified Eagle's Media (DMEM) F12 containing 5% horse serum (HS), 20 ng/ml epidermal growth factor (EGF), 0.5 mg/ml hydrocortisone, 100 ng/ml cholrea toxin, 10 μg/ml insulin and 5 U/mL penicillin, and 5 mg/mL streptomycin at 37° C. in a humidified culture incubator supplied with 5% CO2. […] After allowing migration for 16 hours, cells were stained, photographed and counted as described for the preparation of the SCP2 cells. […]

SCP2 cells [2] = test: modified transmembrane assay, chemotaxis of SCP2 cells; conditions: 100 ng/mL in lower chamber, 8 hours, no induced electric field; Control vs SDF control p=0.015, Control vs EGF control p=0.001 (FIG. 4)
Protocol: Highly metastatic breast cancer cells known as SCP2, a single cell population derived from MDA-MB-231 that is known to metastasize to the bone, were cultured in Dulbecco's Modified Eagle Medium (DMEM; Life Technologies, Gaithersburg, Md., USA), supplemented with 10% heat inactivated fetal bovine serum (FBS), 5 U/mL penicillin, and 5 mg/mL streptomycin. The SCP2 cells were placed in the upper chamber, and both compartments contained 0.1% FBS-DM. The entire apparatus (holder, coil, modified transmembrane chambers with Transwell inserts and cells) was placed in a 37° C. culture incubator with humidified air containing 5% CO2. The leads of the coil were connected to the function generator placed outside the incubator. The cells were allowed to migrate for 8 hours, and then were fixed and stained using Hema-3 stain kit according to the manufacturer's instructions. The number of migratory cells per membrane was then measured using light microscopy by counting the total number of cells in each of five contiguous images spanning radially outward (five fields) from the coil (FIG. 9). […]
In one embodiment, low passage SCP2 cells were cultured in Dulbecco's Modified Eagle's Media (DMEM) containing 10% fetal bovine serum (FBS) and 5 U/mL penicillin, and 5 mg/mL streptomycin at 37° C. in a humidified culture incubator supplied with 5% CO2. […] The cells were counted using a hemocytometer. […]

Row | Substance | actin filament polymerization in SCP2 cells (SCP2 cells [1]) | migration of MCF-10A cells (MCF-10A cells) | migration of SCP2 cells (chemotaxis) versus control (SCP2 cells [2])
1 | EGF: growth factor placed in the lower chamber to induce cell migration | polymerization of actin filaments can be observed at one end of some cells | strongly promotes migration | chemotaxis is well enabled
2 | SDF-1α | – | – | chemotaxis is well enabled
